The source of these data is patent publication US9499519B2, “Fused pyrimidine compounds and use thereof” (Medivation Technologies, Inc., priority 2012, dated 2016).

Common to all, as to assay type: biochemical
In test [1] the target is T1, c-Mer (Homo sapiens, UniProt Q12866).
T1 sequence (Q12866 21-999): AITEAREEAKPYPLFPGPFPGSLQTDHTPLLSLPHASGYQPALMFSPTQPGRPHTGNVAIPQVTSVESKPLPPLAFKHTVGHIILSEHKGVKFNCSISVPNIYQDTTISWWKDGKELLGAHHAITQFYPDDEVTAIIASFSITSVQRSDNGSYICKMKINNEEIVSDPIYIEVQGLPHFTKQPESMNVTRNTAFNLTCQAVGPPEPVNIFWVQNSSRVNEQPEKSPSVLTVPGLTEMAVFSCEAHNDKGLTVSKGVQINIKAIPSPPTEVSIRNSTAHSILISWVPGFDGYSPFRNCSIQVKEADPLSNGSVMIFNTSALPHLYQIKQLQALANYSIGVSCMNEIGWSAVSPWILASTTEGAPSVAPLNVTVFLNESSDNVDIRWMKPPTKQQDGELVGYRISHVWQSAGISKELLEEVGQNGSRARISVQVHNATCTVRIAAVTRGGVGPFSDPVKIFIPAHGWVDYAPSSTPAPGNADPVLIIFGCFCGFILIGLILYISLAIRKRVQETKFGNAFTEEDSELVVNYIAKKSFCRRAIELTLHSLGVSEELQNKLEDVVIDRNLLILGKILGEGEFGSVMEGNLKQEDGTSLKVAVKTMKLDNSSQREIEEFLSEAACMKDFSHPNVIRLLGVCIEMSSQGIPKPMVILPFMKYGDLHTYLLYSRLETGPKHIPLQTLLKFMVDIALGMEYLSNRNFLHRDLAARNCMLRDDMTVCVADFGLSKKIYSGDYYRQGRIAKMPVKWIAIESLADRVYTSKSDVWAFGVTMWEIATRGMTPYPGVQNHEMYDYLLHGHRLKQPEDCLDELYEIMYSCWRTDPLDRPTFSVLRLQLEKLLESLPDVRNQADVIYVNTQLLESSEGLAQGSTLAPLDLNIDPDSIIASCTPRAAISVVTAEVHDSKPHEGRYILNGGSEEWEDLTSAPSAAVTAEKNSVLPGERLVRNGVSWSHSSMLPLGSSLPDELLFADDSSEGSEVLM
Kind of test: HotSpot kinase assay: c-Mer. The settings on record: 100 nM compound, read-out: % Enzyme Inhibition @ 100 nM c-MER. The procedure: Kinase assays were performed using additional compounds against a panel of 4 kinases: AXL; c-Met; c-Mer; and Trk C. Each compound was tested at a concentration of […] in single duplicate mode against the 4 kinases. Compounds were prepared as 10 mM stock solutions in DMSO prior to use in the assay. […] IC50 values and curve fits were obtained using Prism (GraphPad Software).
(§1) The screening was performed using the “HotSpot” assay platform. The assay measures the conversion of a peptide substrate to ^33P-labelled phosphorylated product. Briefly, specific kinase/substrate pairs along with required cofactors were prepared in reaction buffer. Specifically, the substrate was prepared in reaction buffer (20 mM Hepes, pH 7.5; 10 mM MgCl2; 1 mM EGTA; 0.02% Brij35; 0.02 mg/mL BSA; 0.1 mM Na3VO4; 2 mM DTT; 1% DMSO), followed by delivery of any required cofactor to the resulting substrate solution. The corresponding kinase was delivered into the substrate solution and the reaction mixture was mixed gently. Compound was delivered into the reaction mixture, followed 15-20 minutes later by addition of a mixture of ATP (Sigma, St. Louis Mo.) and ^33P ATP (specific activity 0.01 μCi/μL final; Perkin Elmer, Waltham, Mass.) to a final concentration of 10 μM-30 μM to initiate the reaction. […] The percent of enzyme inhibition was calculated based on the percent of remaining kinase activity.

For test [2], the target named is Trk A (Homo sapiens, UniProt P04629). Kind of test: HotSpot kinase assay: Trk A. The settings on record: 100 nM compound, read-out: % Enzyme Inhibition @ 100 nM Trk A. The procedure:
Kinase assays were performed using additional compounds against a panel of 3 kinases: Trk A; Trk B; and Trk C. Each compound was tested at a concentration of 0.1 μM in single duplicate mode against the 3 kinases. Compounds were prepared as 10 mM stock solutions in DMSO prior to use in the assay. […] IC50 values and curve fits were obtained using Prism (GraphPad Software). […]
The screening was performed using the “HotSpot” assay platform. The assay measures the conversion of a peptide substrate to ^33P-labelled phosphorylated product. Briefly, specific kinase/substrate pairs along with required cofactors were prepared in reaction buffer. Specifically, the substrate was prepared in reaction buffer (20 mM Hepes, pH 7.5; 10 mM MgCl2; 1 mM EGTA; 0.02% Brij35; 0.02 mg/mL BSA; 0.1 mM Na3VO4; 2 mM DTT; 1% DMSO), followed by delivery of any required cofactor to the resulting substrate solution. The corresponding kinase was delivered into the substrate solution and the reaction mixture was mixed gently. Compound was delivered into the reaction mixture, followed 15-20 minutes later by addition of a mixture of ATP (Sigma, St. Louis Mo.) and ^33P ATP (specific activity 0.01 μCi/μL final; Perkin Elmer, Waltham, Mass.) to a final concentration of 10 μM-30 μM to initiate the reaction. Reactions were carried out at room temperature for 120 minutes, followed by spotting of the reactions onto P81 ion exchange filter paper (Whatman #3698-915; Whatman Inc., Piscataway, N.J.). Unbound phosphate was removed by extensive washing of filters in 0.75% phosphoric acid. […] The percent of enzyme inhibition was calculated based on the percent of remaining kinase activity.

In test [3] the target is Trk B (Homo sapiens, UniProt Q16620). Kind of test: HotSpot kinase assay: Trk B. The settings on record: 100 nM compound, read-out: % Enzyme Inhibition @ 100 nM Trk B. How it is done:
Each compound was tested at a concentration of 0.1 μM in single duplicate mode against the 3 kinases. Compounds were prepared as 10 mM stock solutions in DMSO prior to use in the assay. […] IC50 values and curve fits were obtained using Prism (GraphPad Software).
as §1

Test [4] addresses Trk C (Homo sapiens, UniProt Q16288). Put plainly: HotSpot kinase assay: Trk C.
Test [5] addresses T2, IGF-1R (Homo sapiens, UniProt P08069).
T2 construct: purchased Millipore 14-802
Put plainly: In vitro IGF-1R enzymatic assay (ADP-Glo kinase assay). The settings on record: activated IGF-1R. How it is done:
(§2) IC50 values of the compounds of the invention against IGF-1R and IR were measured in vitro using an ADP-Glo kinase assay Kit (Promega). […] Kinase reactions in both assays were conducted at 30° C. for 20 min with increasing concentrations of compounds of the invention.
Additional compounds of the invention were screened against activated IGF-1R.

For test [6], the target named is T3, IR (Homo sapiens, UniProt P06213).
T3 construct: purchased Millipore 14-803
T3 sequence (P06213 28-1382): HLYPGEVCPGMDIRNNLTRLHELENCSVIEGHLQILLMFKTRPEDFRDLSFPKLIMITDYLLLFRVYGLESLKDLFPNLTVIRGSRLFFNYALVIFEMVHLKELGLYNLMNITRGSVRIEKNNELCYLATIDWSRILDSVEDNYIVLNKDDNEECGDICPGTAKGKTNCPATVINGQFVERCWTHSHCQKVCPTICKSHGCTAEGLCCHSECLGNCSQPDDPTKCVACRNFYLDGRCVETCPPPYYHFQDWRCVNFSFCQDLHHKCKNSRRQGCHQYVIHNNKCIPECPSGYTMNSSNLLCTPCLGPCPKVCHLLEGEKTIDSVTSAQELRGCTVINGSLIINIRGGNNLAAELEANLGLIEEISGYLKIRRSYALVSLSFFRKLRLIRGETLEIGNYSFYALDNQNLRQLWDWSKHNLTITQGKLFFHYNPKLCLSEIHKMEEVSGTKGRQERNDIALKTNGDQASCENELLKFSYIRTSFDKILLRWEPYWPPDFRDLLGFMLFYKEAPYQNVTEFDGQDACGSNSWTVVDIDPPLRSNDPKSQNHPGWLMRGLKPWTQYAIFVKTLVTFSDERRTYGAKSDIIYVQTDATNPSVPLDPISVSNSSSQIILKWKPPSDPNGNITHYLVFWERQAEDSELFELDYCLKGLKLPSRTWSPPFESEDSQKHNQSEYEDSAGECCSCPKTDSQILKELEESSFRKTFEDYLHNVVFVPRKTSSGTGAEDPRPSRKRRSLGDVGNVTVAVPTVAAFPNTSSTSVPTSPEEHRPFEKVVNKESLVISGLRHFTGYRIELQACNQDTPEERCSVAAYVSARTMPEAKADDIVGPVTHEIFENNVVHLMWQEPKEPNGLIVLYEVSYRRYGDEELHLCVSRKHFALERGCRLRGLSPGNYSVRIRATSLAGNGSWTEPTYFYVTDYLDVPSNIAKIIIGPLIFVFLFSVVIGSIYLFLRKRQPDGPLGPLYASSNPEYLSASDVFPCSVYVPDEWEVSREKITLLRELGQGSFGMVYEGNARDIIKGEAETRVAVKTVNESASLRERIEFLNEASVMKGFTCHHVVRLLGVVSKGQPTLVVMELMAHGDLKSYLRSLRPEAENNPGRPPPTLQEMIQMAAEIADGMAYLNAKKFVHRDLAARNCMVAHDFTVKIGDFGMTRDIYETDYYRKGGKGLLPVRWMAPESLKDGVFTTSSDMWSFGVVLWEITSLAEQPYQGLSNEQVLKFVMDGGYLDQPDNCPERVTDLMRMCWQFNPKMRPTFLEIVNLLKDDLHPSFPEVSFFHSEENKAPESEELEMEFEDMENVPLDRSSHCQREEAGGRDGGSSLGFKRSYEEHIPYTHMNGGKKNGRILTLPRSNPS
Put plainly: In vitro IR enzymatic assay (ADP-Glo kinase assay). The settings on record: activated IR. How it is done: as §2
Additional compounds of the invention were screened against activated IR.

“And” between values parts separate entries of the source, which are not always exact repeats. Equal values may be shown once.

Chain of Trk C (Q16288 32-839): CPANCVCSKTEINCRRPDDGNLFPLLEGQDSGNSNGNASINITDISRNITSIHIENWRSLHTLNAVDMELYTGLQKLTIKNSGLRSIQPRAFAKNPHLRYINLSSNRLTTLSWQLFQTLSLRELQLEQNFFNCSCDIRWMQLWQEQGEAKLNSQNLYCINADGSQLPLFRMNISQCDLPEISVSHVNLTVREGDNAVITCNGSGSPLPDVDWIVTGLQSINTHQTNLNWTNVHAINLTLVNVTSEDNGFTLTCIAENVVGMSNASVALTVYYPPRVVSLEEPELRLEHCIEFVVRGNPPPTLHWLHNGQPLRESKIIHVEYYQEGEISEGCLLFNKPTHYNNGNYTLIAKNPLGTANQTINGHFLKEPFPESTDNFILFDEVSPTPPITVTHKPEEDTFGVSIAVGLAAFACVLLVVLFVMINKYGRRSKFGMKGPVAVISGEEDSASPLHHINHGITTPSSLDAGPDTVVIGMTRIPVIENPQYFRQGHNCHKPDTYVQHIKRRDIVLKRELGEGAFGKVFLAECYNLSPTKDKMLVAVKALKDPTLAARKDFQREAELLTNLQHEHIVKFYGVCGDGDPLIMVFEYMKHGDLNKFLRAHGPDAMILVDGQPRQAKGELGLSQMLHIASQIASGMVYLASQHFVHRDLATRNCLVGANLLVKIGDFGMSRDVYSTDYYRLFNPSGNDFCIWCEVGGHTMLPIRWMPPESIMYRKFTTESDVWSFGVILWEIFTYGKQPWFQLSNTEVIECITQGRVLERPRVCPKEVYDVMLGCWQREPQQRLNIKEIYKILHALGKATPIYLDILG
T2 sequence (P08069 31-1367): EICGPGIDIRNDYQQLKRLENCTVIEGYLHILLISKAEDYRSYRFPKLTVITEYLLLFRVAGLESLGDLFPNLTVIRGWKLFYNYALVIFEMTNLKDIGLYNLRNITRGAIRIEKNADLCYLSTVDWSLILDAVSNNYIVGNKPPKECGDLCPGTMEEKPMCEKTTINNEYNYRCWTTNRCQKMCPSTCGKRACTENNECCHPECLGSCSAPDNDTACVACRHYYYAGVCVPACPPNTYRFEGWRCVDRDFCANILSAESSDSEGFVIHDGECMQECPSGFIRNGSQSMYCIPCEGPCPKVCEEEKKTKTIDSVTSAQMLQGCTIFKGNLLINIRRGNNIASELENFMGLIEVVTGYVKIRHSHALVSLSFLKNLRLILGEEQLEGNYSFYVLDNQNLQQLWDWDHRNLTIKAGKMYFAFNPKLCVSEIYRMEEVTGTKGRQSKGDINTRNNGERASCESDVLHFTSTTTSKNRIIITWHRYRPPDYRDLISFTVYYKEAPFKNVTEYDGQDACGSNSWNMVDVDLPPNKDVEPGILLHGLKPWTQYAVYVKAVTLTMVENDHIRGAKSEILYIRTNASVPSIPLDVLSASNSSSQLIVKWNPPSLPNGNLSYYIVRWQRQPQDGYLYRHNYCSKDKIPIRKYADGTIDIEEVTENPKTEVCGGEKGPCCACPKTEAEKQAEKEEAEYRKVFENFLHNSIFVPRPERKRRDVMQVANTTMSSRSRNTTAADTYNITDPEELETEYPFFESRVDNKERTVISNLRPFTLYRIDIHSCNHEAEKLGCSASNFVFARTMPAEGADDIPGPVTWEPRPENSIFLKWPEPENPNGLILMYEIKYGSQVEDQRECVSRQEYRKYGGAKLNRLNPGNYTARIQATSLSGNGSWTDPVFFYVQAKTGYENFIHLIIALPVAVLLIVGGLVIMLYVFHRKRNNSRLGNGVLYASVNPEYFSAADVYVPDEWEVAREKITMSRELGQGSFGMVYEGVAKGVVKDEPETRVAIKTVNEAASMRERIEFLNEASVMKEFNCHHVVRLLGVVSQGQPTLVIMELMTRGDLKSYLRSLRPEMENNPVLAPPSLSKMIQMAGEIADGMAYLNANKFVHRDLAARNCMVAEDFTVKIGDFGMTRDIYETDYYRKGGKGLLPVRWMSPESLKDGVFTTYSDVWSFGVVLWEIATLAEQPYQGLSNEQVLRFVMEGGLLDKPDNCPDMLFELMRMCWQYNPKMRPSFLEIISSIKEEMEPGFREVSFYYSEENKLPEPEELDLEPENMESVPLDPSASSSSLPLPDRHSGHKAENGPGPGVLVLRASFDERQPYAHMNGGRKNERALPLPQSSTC
Chain of Trk B (Q16620 32-822): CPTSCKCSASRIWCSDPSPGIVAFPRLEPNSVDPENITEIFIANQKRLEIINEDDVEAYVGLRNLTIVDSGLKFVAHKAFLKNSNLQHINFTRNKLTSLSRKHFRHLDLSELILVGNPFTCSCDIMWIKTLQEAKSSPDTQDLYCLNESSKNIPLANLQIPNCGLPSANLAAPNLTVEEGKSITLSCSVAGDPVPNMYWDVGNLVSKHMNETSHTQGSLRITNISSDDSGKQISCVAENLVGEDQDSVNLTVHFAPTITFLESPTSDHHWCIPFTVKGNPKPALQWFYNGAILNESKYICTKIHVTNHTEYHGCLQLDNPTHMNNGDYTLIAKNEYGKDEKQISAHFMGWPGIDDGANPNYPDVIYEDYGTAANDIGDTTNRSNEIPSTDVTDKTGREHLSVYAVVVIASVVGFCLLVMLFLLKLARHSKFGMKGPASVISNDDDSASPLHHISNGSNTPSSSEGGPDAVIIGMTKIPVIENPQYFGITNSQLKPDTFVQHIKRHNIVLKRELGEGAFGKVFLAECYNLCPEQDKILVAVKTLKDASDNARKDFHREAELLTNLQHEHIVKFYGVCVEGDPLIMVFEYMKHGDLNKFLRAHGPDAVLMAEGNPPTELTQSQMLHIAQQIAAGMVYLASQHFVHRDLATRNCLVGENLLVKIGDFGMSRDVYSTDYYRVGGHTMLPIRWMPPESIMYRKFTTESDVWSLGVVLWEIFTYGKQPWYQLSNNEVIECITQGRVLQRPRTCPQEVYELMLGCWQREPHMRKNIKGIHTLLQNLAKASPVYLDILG
Chain of Trk A (P04629 33-796): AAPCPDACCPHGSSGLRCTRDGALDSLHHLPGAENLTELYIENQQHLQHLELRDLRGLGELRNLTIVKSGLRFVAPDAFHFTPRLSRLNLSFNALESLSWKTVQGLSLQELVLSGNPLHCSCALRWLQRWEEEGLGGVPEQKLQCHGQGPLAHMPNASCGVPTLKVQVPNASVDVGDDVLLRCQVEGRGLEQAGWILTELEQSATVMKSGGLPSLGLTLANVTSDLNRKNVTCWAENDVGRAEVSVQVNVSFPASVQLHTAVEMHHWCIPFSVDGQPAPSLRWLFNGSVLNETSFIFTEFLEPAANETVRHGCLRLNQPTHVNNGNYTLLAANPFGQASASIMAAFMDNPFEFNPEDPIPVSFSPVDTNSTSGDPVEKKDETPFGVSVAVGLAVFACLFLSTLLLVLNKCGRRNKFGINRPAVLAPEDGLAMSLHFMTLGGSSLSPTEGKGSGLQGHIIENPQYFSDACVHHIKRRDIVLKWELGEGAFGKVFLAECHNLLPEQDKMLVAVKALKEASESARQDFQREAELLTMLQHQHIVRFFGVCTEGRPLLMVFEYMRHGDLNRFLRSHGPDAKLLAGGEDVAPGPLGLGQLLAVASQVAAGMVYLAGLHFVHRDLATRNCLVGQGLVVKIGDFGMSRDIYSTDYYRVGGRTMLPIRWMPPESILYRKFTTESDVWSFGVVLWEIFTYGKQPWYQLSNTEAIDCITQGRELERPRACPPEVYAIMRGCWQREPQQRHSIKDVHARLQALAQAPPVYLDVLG

For the compound `CC(C)c1cc(Nc2nc(N3CCCC3C(=O)N(C)C)nc3c2CCC3)n[nH]1` (single isomer, unassigned) [Compound 20b, 1-(4-(5-isopropyl-1H-pyrazol-3-ylamino)-6,7-dihydro-5H-cyclopenta[d]pyrimidin-2-yl)-N,N-dimethylpyrrolidine-2-carboxamide], the inhibition at 0.1 µM in test [1] was below 39%; in test [2] it was below 39%; in test [3], below 39%; in test [4] (100 nM compound, HotSpot, read-out: % Enzyme Inhibition @ 100 nM Trk C), above 60%. Besides, the IC50 in test [4] (Trk C) is 55.1 nM; in test [5], 3200 nM; in test [6] it was 1800 nM and 1700 nM. For the same compound, the “selectivity for Trk C inhibition over IGF-1R” value in test [4] (Trk C over IGF-1R) is “about 60 fold”. Also, the “selectivity for Trk C inhibition over IR” value in test [4] (Trk C over IR) was “about 30 fold”. Also, the inhibition at 0.03 µM in test [5] (30 nM, average, read-out: % Inh @ 30 nM Avg) was 9%.
